From ChEMBL document CHEMBL3351635, “Novel nitro(triazole/imidazole)-based heteroarylamides/sulfonamides as potential antitrypanosomal agents” (Eur J Med Chem, 2014)

Tests used:
L6 = experiment: Cytotoxicity against rat L6 cells after 72 hrs by alamar blue assay; assay type: cell-based; conditions: L6, 72 h
[1] = system: Trypanosoma brucei rhodesiense; experiment: Antiparasitic activity against bloodstream forms of Trypanosoma brucei rhodesiense STIB 900 assessed as inhibition of growth after 72 hrs by resazurin assay; assay type: functional, organism-based; conditions: STIB 900, 72 h
[2] = Selectivity index, ratio of IC50 for rat L6 cells to IC50 for bloodstream forms of Trypanosoma brucei rhodesiense STIB 900; assay type: toxicity, cell-based; conditions: read-out: Ratio IC50
Trypanosoma cruzi [3] = experiment: Antiparasitic activity against trypomastigote forms of Trypanosoma cruzi Tulahuen C2C4 infected in rat L6 cells assessed as inhibition of growth after 96 hrs by inverted microscopy; assay type: functional, organism-based; conditions: Tulahuen C2C4, L6, 96 h
[4] = Selectivity index, ratio of IC50 for rat L6 cells to IC50 for trypomastigote forms of Trypanosoma cruzi Tulahuen C2C4 infected in rat L6 cells; assay type: toxicity, cell-based; conditions: read-out: Ratio IC50
Leishmania donovani = experiment: Antiparasitic activity against axenic amastigote forms of Leishmania donovani MHOM/ET/67/L82 assessed as inhibition of growth after 72 hrs by resazurin assay; assay type: functional, organism-based; conditions: MHOM/ET/67/L82, 72 h
[5] = Selectivity index, ratio of IC50 for rat L6 cells to IC50 for axenic amastigote forms of Leishmania donovani MHOM/ET/67/L82; assay type: toxicity, cell-based; conditions: read-out: Ratio IC50
[6] = system: Trypanosoma brucei brucei; experiment: Trypanocidal activity against wild type bloodstream forms of Trypanosoma brucei brucei Lister 427 clone 221a assessed as inhibition of proliferation after 3 days by resazurin assay; assay type: functional, organism-based; conditions: 72 h
[7] = system: Trypanosoma brucei brucei; experiment: Trypanocidal activity against bloodstream forms of Trypanosoma brucei brucei Lister 427 clone 221a overexpressing type I nitroreductase assessed as inhibition of proliferation after 3 days by resazurin assay in absence of tetracycline; assay type: functional, organism-based; conditions: 72 h
[8] = system: Trypanosoma brucei brucei; experiment: Trypanocidal activity against bloodstream forms of Trypanosoma brucei brucei Lister 427 clone 221a overexpressing type I nitroreductase assessed as inhibition of proliferation after 3 days by resazurin assay in presence of tetracycline; assay type: functional, organism-based; conditions: 72 h
[9] = system: Trypanosoma brucei brucei; experiment: Ratio of IC50 for bloodstream forms of Trypanosoma brucei brucei Lister 427 clone 221a overexpressing type I nitroreductase in absence of tetracycline to IC50 for bloodstream forms of Trypanosoma brucei brucei Lister 427 clone 221a overexpressing type I nitroreductase in presence of tetracycline; assay type: functional
Trypanosoma cruzi [10] = experiment: Ratio of benznidazol IC50 to compound IC50 for trypomastigote forms of Trypanosoma cruzi Tulahuen C2C4 infected in rat L6 cells assessed as inhibition of growth after 96 hrs by inverted microscopy; assay type: functional
[11] = molecular target: Sterol 14-alpha demethylase (Trypanosoma cruzi (strain CL Brener), UniProt Q7Z1V1); experiment: Binding affinity to Trypanosoma cruzi CYP51
Sterol 14-alpha demethylase, sequence (Q7Z1V1 whole entry): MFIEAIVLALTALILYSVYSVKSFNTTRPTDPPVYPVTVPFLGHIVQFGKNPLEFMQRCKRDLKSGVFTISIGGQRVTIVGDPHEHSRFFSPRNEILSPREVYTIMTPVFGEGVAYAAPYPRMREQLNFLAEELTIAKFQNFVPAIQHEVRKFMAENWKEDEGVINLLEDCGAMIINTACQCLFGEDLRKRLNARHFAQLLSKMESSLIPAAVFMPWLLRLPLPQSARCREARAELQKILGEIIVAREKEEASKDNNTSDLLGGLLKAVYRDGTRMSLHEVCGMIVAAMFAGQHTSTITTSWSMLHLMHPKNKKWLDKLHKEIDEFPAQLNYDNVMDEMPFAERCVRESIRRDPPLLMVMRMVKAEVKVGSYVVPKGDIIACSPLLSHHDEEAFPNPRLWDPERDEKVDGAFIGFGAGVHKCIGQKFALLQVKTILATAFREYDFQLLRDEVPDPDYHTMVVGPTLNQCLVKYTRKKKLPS

[12] = Selectivity ratio of IC50 for trypomastigote forms of Trypanosoma cruzi Tulahuen C2C4 infected in rat L6 cells to IC50 for bloodstream forms of Trypanosoma brucei rhodesiense STIB 900; assay type: functional

SMILES	IC50 (L6) [µM]	IC50 [1] [µM]	selectivity ratio [2]	IC50 (Trypanosoma cruzi [3]) [µM]	selectivity ratio [4]	IC50 (Leishmania donovani) [µM]	selectivity ratio [5]	IC50 [6] [µM]	IC50 [7] [µM]	IC50 [8] [µM]	Ratio IC50 [9]	Ratio IC50 (Trypanosoma cruzi [10])	Kd [11] [µM]	Ratio IC50 [12]
O=[N+]([O-])c1ncn(CCCNS(=O)(=O)c2cc(Cl)sc2Cl)n1	119	1.59	75	0.552	216	17.8	7	2.94	4.25	0.22	19.3	3.7	–	–
Cc1nc([N+](=O)[O-])cn1CCCNC(=O)c1nc2ccccc2s1	> 290	173	2	105	> 3	–	–	–	–	–	–	0.01	–	–
Cc1nc([N+](=O)[O-])cn1CCCNS(=O)(=O)c1ccc(Cl)s1	261	47.2	6	102	3	–	–	–	–	–	–	0.02	–	–
Nc1nc(N)nc(Nc2ccc([As]3SCC(CO)S3)cc2)n1 (stereo unspecified) [MELARSOPROL]	–	–	–	–	–	–	–	0.006	–	–	1	–	–	–
O=[N+]([O-])c1ncn(CCCCNS(=O)(=O)c2ccc(Cl)s2)n1	128	0.52	247	0.462	278	20	6	22.9	21.6	0.55	39.2	4.42	–	–
CCCCCCCCCCCCCCCCOP(=O)([O-])OCC[N+](C)(C)C [MILTEFOSINE]	–	–	–	–	–	0.39	–	–	–	–	–	–	–	–
Cc1nc([N+](=O)[O-])cn1CCCNC(=O)c1sc2ccccc2c1Cl	189	39.4	5	32.2	6	–	–	–	–	–	–	0.05	–	–
O=C(NCCCCn1cnc([N+](=O)[O-])n1)c1ccsc1	> 339	0.81	> 418	1.75	> 194	27.7	> 12	3.02	2.49	0.31	8	1.3	–	–
Cc1ccoc1C(=O)NCCCn1cnc([N+](=O)[O-])n1	> 358	16.4	> 22	30.4	> 12	139	> 3	–	–	–	–	0.07	–	–
O=[N+]([O-])c1ncn(CCCNS(=O)(=O)c2ccc(Cl)s2)n1	–	–	122	0.438	556	–	7	–	–	–	18.9	3.6	65.2	–
O=C(NCCCn1cnc([N+](=O)[O-])n1)c1cc2ccccc2s1	124	0.187	665	0.293	425	14.7	8	> 0.93	1.29	0.07	18.4	7.72	–	–
O=[N+]([O-])c1ncn(CCCCNS(=O)(=O)c2cc(Cl)c(Cl)s2)n1	97	0.218	447	0.373	261	10.6	9	0.61	0.46	0.19	2.4	6.07	–	–
O=[N+]([O-])c1ncn(CCCNS(=O)(=O)c2cc(Cl)c(Cl)s2)n1	101	0.505	200	0.158	639	13.2	8	15.5	17	0.52	32.6	14.31	–	–
O=C(Cn1ccnc1[N+](=O)[O-])NCc1ccccc1 [BENZNIDAZOLE]	–	–	–	2.13	–	–	–	–	–	–	9.9	–	–	–
O=C(NCCCn1cnc([N+](=O)[O-])n1)c1ccsc1	> 356	0.915	> 389	3.99	> 89	71.2	> 5	26.8	21.2	0.29	73	0.57	–	–
CC1CS(=O)(=O)CCN1/N=C/c1ccc([N+](=O)[O-])o1 (stereo unspecified) [NIFURTIMOX]	–	–	–	–	–	–	–	–	–	–	13.2	–	–	–
O=C(NCCCn1cnc([N+](=O)[O-])n1)c1ccnc(Cl)c1	> 322	2.25	> 143	13.5	> 24	82.4	> 4	> 7.99	6.99	5.66	1.2	0.17	–	6
Cc1cc(C(=O)NCCCn2cnc([N+](=O)[O-])n2)c(C)o1	> 341	4.71	> 73	8.87	> 39	132	> 3	–	–	–	–	0.25	–	–
O=C(NCCCn1cnc([N+](=O)[O-])n1)c1ccc(C(F)(F)F)nc1	> 291	–	> 82	3.46	> 84	–	–	–	–	–	–	0.5	–	–
O=C(NCCCCn1cnc([N+](=O)[O-])n1)c1nc2ccccc2s1	154	1.73	89	0.422	364	27.7	6	1.36	1.39	0.36	3.9	5.36	–	–
Cc1csc(C(=O)NCCCn2cnc([N+](=O)[O-])n2)c1	173	0.98	176	2.55	68	46.1	4	9.69	6.34	0.33	19.2	0.8	–	–
O=[N+]([O-])c1nccn1CCCNS(=O)(=O)c1cc(Cl)c(Cl)s1	75	32.7	2	4.75	16	7.35	10	–	–	–	–	0.48	–	–
O=C(NCCCCn1cnc([N+](=O)[O-])n1)c1sc2ccccc2c1Cl	> 264	0.978	> 270	0.187	> 1410	11.5	> 23	0.44	0.48	0.16	3	12.09	–	–
O=[N+]([O-])c1nccn1CCCNS(=O)(=O)c1cc(Cl)sc1Cl	108	40.3	3	6.99	15	13.1	8	–	–	–	–	0.32	–	–
